Values joined by “and” are separate entries in the source; they are usually repeats but may differ in a detail not shown here. Equal entries are not always repeated.
Assay: mn = molality of the nth substance listed, in mol/kg
Conditions: 101 kPa, Liquid; for mass density: Vibrating tube method; for speed of sound: Sing-around technique in a fixed-path interferometer

C[C@H](N)C(=O)O [(S)-2-aminopropanoic acid] + O
mass density [kg/m3]
Conditions | m1 = 0.05014 | m1 = 0.15 | m1 = 0.2505 | m1 = 0.303 | m1 = 0.3456
288.15 K | 1000.65 | 1003.65 | 1006.52 | 1007.97 | 1009.14
298.15 K | 998.59 | 1001.56 | 1004.42 | 1005.85 | 1006.98
308.15 K | 995.554 | 998.483 | 1001.31 | 1002.74 | 1003.86
318.15 K | 991.648 | 994.399 | 997.067 | 998.365 | 999.359

O=P([O-])([O-])O.[K+].[K+] [dipotassium hydrogen phosphate] + O
Conditions | mass density, 288.15 K | mass density, 298.15 K | mass density, 308.15 K | mass density, 318.15 K | speed of sound, 288.15 K | speed of sound, 298.15 K | speed of sound, 308.15 K | speed of sound, 318.15 K
m1 = 0.2 | 1031.93 kg/m3 and 1029.08 kg/m3 | 1029.32 kg/m3 and 1026.51 kg/m3 | 1025.9 kg/m3 and 1023.13 kg/m3 | 1021.79 kg/m3 and 1018.99 kg/m3 | 1502.7 m/s and 1500 m/s | 1530.6 m/s and 1528.2 m/s | 1551.8 m/s and 1549.3 m/s | 1566.8 m/s and 1564.2 m/s
m1 = 0.4 | 1057.5 kg/m3 and 1061.39 kg/m3 | 1054.52 kg/m3 and 1058.35 kg/m3 | 1054.54 kg/m3 and 1050.82 kg/m3 | 1050.25 kg/m3 and 1046.5 kg/m3 | 1531 m/s and 1535 m/s | 1557 m/s and 1560.8 m/s | 1580.1 m/s and 1576.5 m/s | 1593.7 m/s and 1590.2 m/s
m1 = 0.6 | 1084.12 kg/m3 and 1093.21 kg/m3 | 1080.78 kg/m3 and 1089.76 kg/m3 | 1076.82 kg/m3 and 1085.71 kg/m3 | 1072.29 kg/m3 and 1081.11 kg/m3 | 1560.3 m/s and 1570.8 m/s | 1584.4 m/s and 1594.5 m/s | 1602.3 m/s and 1611.8 m/s | 1614.7 m/s and 1623.6 m/s
m1 = 0.8 | 1113.94 kg/m3 and 1116.48 kg/m3 | 1110.27 kg/m3 and 1112.77 kg/m3 | 1106.04 kg/m3 and 1108.53 kg/m3 | 1101.38 kg/m3 and 1103.81 kg/m3 | 1594.2 m/s and 1597.3 m/s | 1616.3 m/s and 1619.1 m/s | 1632.4 m/s and 1635 m/s | 1643.2 m/s and 1645.5 m/s

NCC(=O)O [2-aminoacetic acid] + O
Conditions | mass density, m1 = 0.04978 [kg/m3] | mass density, m1 = 0.1472 [kg/m3] | mass density, m1 = 0.2507 [kg/m3] | mass density, m1 = 0.3018 [kg/m3] | mass density, m1 = 0.3521 [kg/m3] | speed of sound, m1 = 0.04978 [m/s] | speed of sound, m1 = 0.1472 [m/s] | speed of sound, m1 = 0.2507 [m/s] | speed of sound, m1 = 0.3018 [m/s] | speed of sound, m1 = 0.3521 [m/s]
288.15 K | 1000.74 | 1003.87 | 1007.09 | 1008.62 | 1010.01 | 1484.9 | 1490.1 | 1495.3 | 1497.7 | 1500
298.15 K | 998.674 | 1001.73 | 1004.79 | 1006.26 | 1007.54 | 1499 | 1503.6 | 1508.3 | 1510.3 | 1512.3
308.15 K | 995.639 | 998.704 | 1001.69 | 1003 | 1004.15 | 1521.8 | 1526 | 1530.5 | 1532.4 | 1534.3
318.15 K | 991.801 | 994.854 | 997.838 | 999.157 | 1000.43 | 1538.6 | 1542.8 | 1547 | 1549.3 | 1550.9
